This is an account of results in paper PMC6594577, “Identifying small molecule probes of ENTPD5 through high throughput screening” (PLoS ONE, 2019).

The target in test [1] is T1, B.ENTPD5 (human ENTPD5 44–428) (Homo sapiens, UniProt O75356).
T1 construct: bacterial codon-optimized human ENTPD5 44–428 (B.ENTPD5); His8 (C); made in house; host or cells: E. coli C41(DE3)
T1 sequence (O75356 44-428): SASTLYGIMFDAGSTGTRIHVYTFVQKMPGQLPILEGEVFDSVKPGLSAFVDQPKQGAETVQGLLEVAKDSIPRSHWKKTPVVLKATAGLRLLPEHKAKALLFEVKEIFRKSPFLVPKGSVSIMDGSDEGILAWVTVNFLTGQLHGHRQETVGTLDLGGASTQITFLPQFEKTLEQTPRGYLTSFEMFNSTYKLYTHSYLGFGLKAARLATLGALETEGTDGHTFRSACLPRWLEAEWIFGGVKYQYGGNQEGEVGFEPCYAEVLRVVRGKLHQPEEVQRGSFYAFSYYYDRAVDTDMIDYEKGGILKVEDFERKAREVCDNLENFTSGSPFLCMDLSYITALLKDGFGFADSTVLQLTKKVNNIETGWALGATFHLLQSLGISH
The experiment in a line: coupled enzyme (ENTPD5/UMPK/luciferase) HTS assay. Format: biochemical. Particulars: for inhibition at 20 µM: HTS, 20 μM compound, duplicate, read-out: Percent ENTPD5 inhibition; for IC50: compounds at 5, 10, 20 and 40 μM, coupled enzyme HTS assay. How it is done: Stocks of purified B.ENTPD5, UMPK, and luciferase were diluted to 0.4 mg/mL, 1.2 mg/mL, 4.5 mg/mL, respectively, in 250 mM NaCl, 25 mM Tris-HCl pH 8.5, 5 mM MgCl2, 0.1 mg/mL BSA, and 5 mM DTT and flash frozen. To prepare enzyme mix solution for HTS, ENTPD5 (1 ng/μL final concentration) and UMPK (3.5 ng/μL) were diluted in HTS buffer (250 mM NaCl, 25 mM Tris-HCl pH 7.7, 5 mM MgCl2, 5 mM DTT, 0.1 mg/mL BSA, and 0.01% Triton X-100). An ENTPD5 null mix was made as above without ENTPD5 to provide maximal signal mimicking 100% inhibition. Substrate mix solution consisted of ATP (625 μM) and UDP (150 μM) in HTS buffer. Developer solution consisted of Luciferase (50 ng/μL) and D-luciferin (1.6 mM) in HTS buffer. All solutions were stored at 4°C, and equilibrated to room temperature prior to screening. All steps of ENTPD5 HTS were performed at room temperature in duplicate 384-well plates. For each run, 40 μL of enzyme solution (or ENTPD5 null mix) was added to each well of a 384 well plate. 0.1 μL of 10 mM compound (in 100% DMSO) from a 25,000 subset of the Chembridge DiverSet library or DMSO alone were added to wells by pin tool (V&P Scientific). Following a 10-minute incubation, the reaction was initiated with 10 μL of substrate mix (final concentrations: 40 ng/50 μL ENTPD5, 140 ng/50 μL UMPK, 125 μM ATP, 30 μM UDP, 20 μM test compound). Assay plates were shaken at 1500 rpm for 30 seconds and then incubated for 1h. Following incubation, 10 μL of developer solution was added to each well (final concentrations: 500 ng/60 μL luciferase, 266 μM D-luciferin). The plate was shaken for 30 seconds and incubated for 30 minutes. Luminescence readings were performed on a Tecan Infinite […] with automatic attenuation settings and 100 ms integration time. Hits and hit analogs were (re)purchased from Chembridge for SAR studies. Compounds were assayed at 5 μM, 10 μM, 20 μM, and 40 μM using the assay described above. To discover ENTPD5 inhibitors, a coupled enzyme assay was developed for high-throughput screening. The ENTPD5 reaction (UDP ➔ UMP + Pi) was coupled with uridine monophosphate kinase's (UMPK) reaction with UMP (UMP + ATP ➔ UDP + ADP) to create a futile catalytic cycle consuming ATP (Fig 3A). After one hour, the residual ATP was measured with firefly luciferase. UMPK concentrations were chosen to ensure ENTPD5, not UMPK, was rate-limiting. The ATP concentration was chosen to maximize signal with no ENTPD5 present, and the reaction time was optimized to remain in the linear range of the assay. Initial UDP concentration was chosen to allow for multiple turnover events on a single molecule in the cycle. Due to the availability of higher yields of the bacterially produced enzyme, B.ENTPD5 was used for HTS and subsequent structure activity relationship studies. 21,000 compounds were screened in duplicate at 20 μM. The average Z' value of the 132-plate screen was 0.73, indicating a robust assay. Five compounds producing >25% reproducible inhibition of ENTPD5 activity were selected for further analysis (0.02% hit rate) (Fig 3B and 3C).

Another test has as its target T2, I.ENTPD5 (Homo sapiens, UniProt O75356).
T2 construct: His8 (C); made in house; host or cells: Hi-5 insect cells (baculovirus amplified in SF9)
T2 sequence (O75356 44-428): T1 sequence (O75356 44-428)
The experiment in a line: Malachite Green (MG) assay for free phosphate. Format: biochemical. How it is done:
Malachite Green (MG) assay for free phosphate was used to directly test ENTPD5 activity. Standard curves for each preparation of malachite green were generated using known amounts of free phosphate. Reactions were carried out at room temperature in 1-mL cuvettes and OD 630 nm measurements were performed on a Nanodrop 2000c. ENTPD5 assays were initiated by adding UDP (100 μM final concentration) to a cuvette containing 800 μL of ENTPD5 (10 ng) in reaction buffer (250 mM NaCl, 5 mM MgCl2, 25 mM Tris-HCl pH 8.5). After 5 minutes, the reaction was quenched with 200 μL of MG buffer (13.1% (v/v) Concentrated sulfuric acid, 2.64 mM malachite green, 1.4% (w/v) ammonium molybdate, and 0.17% (v/v) Tween 20) and mixed by pipet. The OD 630 nm was measured after an additional 5-minute incubation. IC50 values were calculated by GraphPad Prism 6 using sigmoidal interpolation model with 95% confidence intervals. Using I.ENTPD5, the five hits compounds were validated in the malachite green (MG) assay, which directly measures free phosphate, a product of ENTPD5 activity.

The next test has as its system LNCaP cells. The experiment in a line: Growth inhibition assay, LNCaP. It counts as cell-based. Particulars: Homo sapiens, 48 h, 48h treatment, cell count normalized to DMSO. On the procedure:
LNCaP (ATCC CFL-1740), DU-145 (ATCC HTB-81), and PC3 (ATCC CRL-1435) cell lines were cultivated in a humid atmosphere (5% CO2, 37°C) using RPMI 1640 with L-glutamine (10-040-CV Corning) media supplemented with 10% FBS (SH30910.03 Hyclone) and 1x penicillin-streptomycin solution (Invitrogen). RWPE-1 (ATCC CRL-11609) was cultivated in a humid atmosphere (5% CO2, 37°C) using Keratinocyte Serum Free Medium (K-SFM Kit 17005–042 GIBCO) supplemented with bovine pituitary extract, epidermal growth factor (provided with K-SFM Kit), and 1x penicillin-streptomycin solution (Invitrogen). All cell lines were analyzed by STR (Short Tandem Repeat) and confirmed to match to corresponding STR profile data from the Global Bioresource Center ATCC or ExPASy Cellosaurus database. All cell lines were verified to be mycoplasma free.
5,000 cells were plated on day 0 in a 96-well plate. On day 1, before treatment, each well was imaged and direct cell counting was performed using a Celigo S (Nexcelom) imager and automatic cell counting software provided with the instrument. Compounds were added to final concentrations of 0.15 μM- 20 μM. 48 hours after treatment, wells were re-imaged and counted using the pre-treatment counting procedure. Growth was reported as the fold increase over the baseline measurement and normalized to DMSO controls. Experiments were performed in triplicate, in three separate experiments. […]

In test [2] the test system is O-glycan levels in LNCaP cells. The experiment in a line: Western blot for total O-glycosylation, LNCaP. As to conditions: 10 μM, 24h, immunoblot. It counts as cell-based. How it is done:
(§1) LNCaP, DU145, PC3, and RWPE-1 cells were treated with 10 μM compound or DMSO control. 24h post-treatment, cells were washed with ice cold PBS, scraped, pelleted and stored at -80°C until use. Frozen cell pellets were lysed with lysis buffer consisting of 20 mM HEPES pH. 7.4, 150 mM NaCl, 1% Triton X-100, 1 mM EGTA, 1 mM EDTA, 10 mM sodium pyrophosphate, 100 mM NaF, 5 mM iodoacetic acid, 20 nM okadaic acid, 0.2 mM phenylmethylsulfonyl flouride (PMSF), and complete protease inhibitor cocktail tablets (Roche Diagnostics). Samples containing 50 μg of protein were suspended in SDS loading buffer, separated on 4–12% SDS polyacrylamide gels (GenScript #M41215) and electrotransferred to PVDF membranes (Millipore Immobilon-FL #IPFL00010). Precision Plus Protein Standards all blue (Bio-Rad 161–0373) were included as molecular weight markers. Immunoblotting was performed using standard methods, with TBS-T and TBS-T with 5% BSA as the wash and blocking/primary antibody dilution solutions, respectively. Total protein was measured with Ponceau-S staining prior to probing with antibodies. Membranes were incubated overnight at 4°C with primary antibodies diluted 1:1000 unless noted otherwise. […] Western blot quantification was normalized to total protein levels and analyzed in ImageStudio (LI-COR).
For orientation: Immunoblotting shows a protein as a band on a membrane.

Test [3] has as its system O-glycan levels in DU145 cells. The experiment in a line: Western blot for total O-glycosylation, DU145. It counts as cell-based. Particulars: DU145, 10 μM, 24h, immunoblot. How it is done:
as §1

Where [4] appears, read: substrate UDP, purified I.ENTPD5, Michaelis-Menten.

For `O=S(=O)(Nc1ccc(O)c(-c2c(O)ccc3ccccc23)c1)c1ccc(Cl)cc1` [Compound 2a], in test [1], the inhibition at 20 µM was 35% and half-maximal inhibition (IC50) required 6.7 ± 0.7 µM. Moreover, the “inhibition of I.ENTPD5 (hit validation)” value against I.ENTPD5 (MG assay) is “dose-dependent inhibition”. In the case of `Cc1cc(C)c(C)c(S(=O)(=O)Nc2ccc(O)c(-c3c(O)ccc4ccccc34)c2)c1C` [Compound 2b], in test [1], the inhibition at 20 µM turned out to be 48% and the IC50 is 3.7 ± 0.4 µM. Besides, the “inhibition of I.ENTPD5 (hit validation)” value at I.ENTPD5 (MG assay) is reported as “dose-dependent inhibition”.

`O=S(=O)(Nc1ccc(O)c(-c2c(O)ccc3ccccc23)c1)c1ccccc1` [Compound 2c] gave an IC50 in test [1] of 6.8 ± 1 µM. In turn, `Cc1ccc(S(=O)(=O)Nc2ccc(O)c(-c3c(O)ccc4ccccc34)c2)cc1` [Compound 2d] showed an IC50 in test [1] of 7.1 ± 1.6 µM. With `CCc1ccc(S(=O)(=O)Nc2ccc(O)c(-c3c(O)ccc4ccccc34)c2)cc1` [Compound 2e], in test [1], the IC50 amounted to 4.3 ± 2.2 µM. `CC(C)(C)c1ccc(S(=O)(=O)Nc2ccc(O)c(-c3c(O)ccc4ccccc34)c2)cc1` [Compound 2f] had an IC50 against I.ENTPD5 (MG assay, expanded concentration range, 100 μM UDP) of 1.54 µM. Further, the concentration for a half-maximal effect (EC50) in the test with LNCaP cells is > 10 µM. The O-glycan level result in test [2] and in test [3] was “inability of compound 2f to reduce O-glycan levels” throughout. As for `O=S(=O)(Nc1ccc(O)c(-c2c(O)ccc3ccccc23)c1)c1ccc(Br)cc1` [Compound 2g], the IC50 in test [1] is 8.3 ± 1 µM. As to `Cc1ccc(S(=O)(=O)Nc2cc(-c3c(O)ccc4ccccc34)c(O)c3ccccc23)cc1` [Compound 2h], the IC50 in test [1] was > 100 µM. For `O=S(=O)(Nc1cc(-c2c(O)ccc3ccccc23)c(O)c2ccccc12)c1ccc(Cl)cc1` [Compound 2i], the IC50 in test [1] was > 100 µM.

Take `CCC(=O)N1c2ccccc2C(N(C(=O)c2ccccc2)c2ccccc2)CC1C` (stereo not drawn) [Compound 3]: the inhibition at 20 µM in test [1] is 47%. As for `O=C1NC(c2ccccc2OCc2ccccc2)Nc2ccccc21` (stereo not drawn) [Compound 4], the inhibition at 20 µM in test [1] is 28%. Also, at I.ENTPD5 (MG assay), the “inhibition of I.ENTPD5 (hit validation)” value was “dose-dependent inhibition”. As to `O=c1ccn([C@@H]2O[C@H](COP(=O)(O)OP(=O)(O)O)[C@@H](O)[C@H]2O)c(=O)[nH]1` [UDP, reference compound], on I.ENTPD5 (setting [4]), the Km turned out to be 480 ± 111 µM and the kcat is 783 ± 68 s⁻¹.

As a reminder, the inhibition is the change of the read-out against control, counted positive when it falls. The IC50 is the concentration needed to halve the response being measured. Low values mean higher potency, high ones lower potency. By EC50 is commonly meant the concentration giving half of the maximal effect. For orientation: Km means the concentration of substrate that gives half-maximal velocity. One may read the kcat as the number of substrate molecules converted per active site and unit of time at saturation.
